This note sets out measurements from ChEMBL document CHEMBL1201862, “PubChem BioAssay data set” (2004).

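Results reflect a 48-hour exposure of cells in 96-well plates to compound at five concentrations. Abbreviation: GI50, concentration required for 50% inhibition of growth.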 Active and inactive are the calls of the source. Rule as the data show it: active = GI50 up to about 1.1 µM and inactive = higher. Some results are limits rather than exact numbers.

Among the test systems are DU-145; OVCAR-5; SK-MEL-28; NCI-H522; HT-29; UACC-62; MDA-MB-435; T47D; BT-549; A498; OVCAR-8; A549; Hs-578T; SN12C; CAKI-1; COLO 205; MDA-MB-231; PC-3; SW-620; HCT-116.
Common to all, as to assay: NCI tumour cell line growth inhibition, 48 h

As for `Nc1nncc2[nH]cnc12`, the GI50 in the assay with DU-145 was > 62.5 µM (inactive); in the assay on OVCAR-5, 49.3 µM (inactive); in the assay on SK-MEL-28 it was > 100 µM (inactive); with NCI-H522 it was > 100 µM (inactive); in the assay with HT-29, 39.4 µM (inactive); in the assay with UACC-62, 47.3 µM (inactive). The GI50 was > 74.3 µM (inactive) in the assay on MDA-MB-435; > 75.9 µM (inactive) in the assay with T47D; 26.9 µM (inactive) with BT-549; > 62.2 µM (inactive) in the assay on A498; 22.5 µM (inactive) with OVCAR-8; 44.7 µM (inactive) with A549. The GI50 with Hs-578T was > 78.7 µM (inactive); in the assay on SN12C, > 79.4 µM (inactive); in the assay on CAKI-1, 66.2 µM (inactive); with COLO 205, 24.2 µM (inactive); in the assay with MDA-MB-231, 99.5 µM (inactive); in the assay with PC-3, 69 µM (inactive). Moreover, the GI50 is 31 µM (inactive) in the assay on SW-620 and 36.6 µM (inactive) with HCT-116.

For the compound `CC(C)(Cc1ccccc1)N1C(=O)N1C(C)(C)Cc1ccccc1`, the GI50 with DU-145 was > 100 µM (inactive); in the assay with OVCAR-5, 19.9 µM (inactive); with SK-MEL-28, > 100 µM (inactive); in the assay with NCI-H522, 13.8 µM (inactive); in the assay with HT-29, 15.5 µM (inactive); in the assay with UACC-62 it was 23.8 µM (inactive). The GI50 is 39.1 µM (inactive) in the assay with MDA-MB-435; 65.9 µM (inactive) with T47D; 29.4 µM (inactive) in the assay with BT-549; > 100 µM (inactive) in the assay on A498; > 100 µM (inactive) in the assay on OVCAR-8; 20.1 µM (inactive) in the assay with A549. Further, the GI50 was > 100 µM (inactive) with Hs-578T; 52 µM (inactive) in the assay on SN12C; > 100 µM (inactive) in the assay with CAKI-1; 25.6 µM (inactive) in the assay with COLO 205; 28.1 µM (inactive) in the assay with MDA-MB-231; 47.5 µM (inactive) with PC-3. Further, the GI50 was 57 µM (inactive) in the assay on SW-620 and 40.6 µM (inactive) in the assay with HCT-116.

`C/C(CC(O)(C(F)(F)F)C(F)(F)F)=N\O`: the GI50 in the assay on DU-145, in the assay with OVCAR-5, in the assay on SK-MEL-28, in the assay on NCI-H522, in the assay with HT-29 and in the assay with UACC-62 was > 10 µM (inactive) each time. Further, the GI50 in the assay on MDA-MB-435, in the assay on T47D, in the assay with BT-549, in the assay on A498, in the assay with OVCAR-8 and in the assay with A549 was > 10 µM (inactive) each time. Besides, the GI50 in the assay with Hs-578T, with SN12C, in the assay with CAKI-1, with COLO 205, in the assay on MDA-MB-231 and with PC-3 was > 10 µM (inactive) throughout. The GI50 with SW-620 and in the assay on HCT-116 was > 10 µM (inactive) throughout.

On to `Nc1nc(N)c(-c2cccc(C(F)(F)F)c2)c(Cc2cccc(C(F)(F)F)c2)n1`, for which the GI50 was 7.71 µM (inactive) with DU-145; 3.48 µM (inactive) in the assay with OVCAR-5; 11.4 µM (inactive) in the assay with SK-MEL-28; 4.06 µM (inactive) with NCI-H522; 1.18 µM (inactive) in the assay with HT-29; 0.693 µM (active) in the assay with UACC-62. The GI50 in the assay on MDA-MB-435 was 2.96 µM (inactive); with T47D, 12.8 µM (inactive); with BT-549, 10.2 µM (inactive); in the assay with A498 it was 3.43 µM (inactive); in the assay with OVCAR-8, 8.49 µM (inactive); with A549, 0.628 µM (active). In addition, the GI50 in the assay on Hs-578T is 14.2 µM (inactive); with SN12C, 3.54 µM (inactive); in the assay on CAKI-1, 7.23 µM (inactive); in the assay with COLO 205, 6.27 µM (inactive); in the assay with MDA-MB-231, 13.1 µM (inactive); in the assay with PC-3, 11.7 µM (inactive). Further, the GI50 was 7.33 µM (inactive) with SW-620 and 0.64 µM (active) with HCT-116.

Turning to `Cc1ccc(-c2c3nc(c(-c4ccc(C)cc4)c4ccc([nH]4)c(-c4ccc(OCC5COC(C)(C)O5)cc4)c4nc(c(-c5ccc(C)cc5)c5ccc2[nH]5)C=C4)C=C3)cc1` (stereo not given), the GI50 is > 31.6 µM (inactive) in the assay on DU-145; > 31.6 µM (inactive) in the assay on OVCAR-5; > 31.6 µM (inactive) in the assay with SK-MEL-28; > 31.6 µM (inactive) in the assay with NCI-H522; > 31.6 µM (inactive) with HT-29; > 10 µM (inactive) with UACC-62. Also, the GI50 in the assay on MDA-MB-435 is > 31.6 µM (inactive); in the assay with T47D it was > 31.6 µM (inactive); in the assay on BT-549 it was > 100 µM (inactive); in the assay on A498 it was 1.13 µM (inactive); with OVCAR-8, 25.1 µM (inactive); in the assay on A549 it was > 31.6 µM (inactive). In addition, the GI50 with Hs-578T was 10.3 µM (inactive); with SN12C it was > 31.6 µM (inactive); with CAKI-1 it was > 100 µM (inactive); in the assay with COLO 205 it was > 31.6 µM (inactive); in the assay on MDA-MB-231, > 31.6 µM (inactive); with PC-3, > 10 µM (inactive). Besides, the GI50 in the assay with SW-620 and in the assay with HCT-116 was > 31.6 µM (inactive) each time.

With `COC(=O)C1=C(OC(=O)/C(=C/c2ccccc2)c2ccc(OC)cc2)C(C(=O)OC)[C@@]2(O)[C@@H](C(=O)OC)[C@H](C)C[C@@H]1[C@@H]2C(=O)OC` (stereo not given in full), the GI50 is > 100 µM (inactive) with DU-145; 65.6 µM (inactive) in the assay on OVCAR-5; > 100 µM (inactive) with SK-MEL-28; 35.3 µM (inactive) in the assay with NCI-H522; > 100 µM (inactive) in the assay with HT-29; > 100 µM (inactive) in the assay on UACC-62. Moreover, the GI50 in the assay with MDA-MB-435 was > 100 µM (inactive); with T47D it was > 100 µM (inactive); with BT-549, 21 µM (inactive); in the assay with A498, > 100 µM (inactive); in the assay with OVCAR-8 it was 35.6 µM (inactive); with A549 it was 50.1 µM (inactive). For the same compound, the GI50 in the assay with Hs-578T was 20.6 µM (inactive); in the assay with SN12C it was > 100 µM (inactive); with CAKI-1 it was > 100 µM (inactive); with COLO 205, > 100 µM (inactive); in the assay on MDA-MB-231, 18.7 µM (inactive); with PC-3, > 100 µM (inactive). The GI50 with SW-620 and with HCT-116 was > 100 µM (inactive) each time.

Take `CN(C)CCCNC(=O)N/N=C/c1ccc(O)cc1`: the GI50 in the assay with DU-145, in the assay on OVCAR-5, in the assay with SK-MEL-28, in the assay on NCI-H522, in the assay on HT-29 and in the assay on UACC-62 was > 100 µM (inactive) each time. The GI50 with MDA-MB-435, with T47D, in the assay with BT-549, with A498, in the assay on OVCAR-8 and in the assay on A549 was > 100 µM (inactive) throughout. Also, the GI50 in the assay on Hs-578T, with SN12C, with CAKI-1, in the assay with COLO 205, in the assay with MDA-MB-231 and in the assay with PC-3 was > 100 µM (inactive) in each case. In addition, the GI50 in the assay with SW-620 and in the assay on HCT-116 was > 100 µM (inactive) each time.

`CCOC(=O)CCC(NC(=O)c1ccc(Nc2nc3ccccc3nc2C(=O)OCC)s1)C(=O)OCC` (stereo not given): the GI50 in the assay on DU-145 was > 100 µM (inactive); in the assay on OVCAR-5, > 100 µM (inactive); with SK-MEL-28 it was > 100 µM (inactive); in the assay with NCI-H522, > 100 µM (inactive); in the assay on HT-29, > 100 µM (inactive); in the assay with UACC-62, 59.2 µM (inactive). The GI50 in the assay on MDA-MB-435 is > 100 µM (inactive); in the assay on T47D, > 100 µM (inactive); with BT-549, 46 µM (inactive); with A498 it was > 100 µM (inactive); in the assay with OVCAR-8, 19.5 µM (inactive); in the assay with A549, 88.1 µM (inactive). Besides, the GI50 in the assay with Hs-578T was 56.4 µM (inactive); in the assay on SN12C, > 100 µM (inactive); in the assay on CAKI-1, 81.3 µM (inactive); in the assay on COLO 205, > 100 µM (inactive); in the assay on MDA-MB-231, 67.1 µM (inactive); in the assay on PC-3 it was > 100 µM (inactive). Besides, the GI50 with SW-620 and in the assay on HCT-116 was > 100 µM (inactive) each time.

With `Nc1ccc2c(c1)C(=O)c1ccccc1-2`, the GI50 in the assay on DU-145, in the assay on OVCAR-5, in the assay on SK-MEL-28, in the assay on NCI-H522, in the assay with HT-29 and in the assay with UACC-62 was > 100 µM (inactive) throughout. Further, the GI50 was > 100 µM (inactive) in the assay with MDA-MB-435; 61.8 µM (inactive) with T47D; 34 µM (inactive) in the assay with BT-549; 49 µM (inactive) in the assay with A498; 54.8 µM (inactive) with OVCAR-8; > 100 µM (inactive) in the assay on A549. The GI50 is > 100 µM (inactive) with Hs-578T; > 100 µM (inactive) in the assay with SN12C; 56.5 µM (inactive) in the assay on CAKI-1; 91.4 µM (inactive) with COLO 205; > 100 µM (inactive) in the assay on MDA-MB-231; > 100 µM (inactive) in the assay with PC-3. The GI50 in the assay on SW-620 is 68.1 µM (inactive); with HCT-116, > 100 µM (inactive).

On to `C=CCc1oc(C)nc1CCCC`, for which the GI50 in the assay on DU-145, in the assay on OVCAR-5, in the assay with SK-MEL-28, with NCI-H522, in the assay on HT-29 and in the assay on UACC-62 was > 100 µM (inactive) throughout. The GI50 with MDA-MB-435, in the assay on T47D, in the assay with BT-549, with A498, in the assay on OVCAR-8 and with A549 was > 100 µM (inactive) in each case. Also, the GI50 in the assay on Hs-578T, in the assay on SN12C, in the assay with CAKI-1, in the assay with COLO 205, in the assay with MDA-MB-231 and with PC-3 was > 100 µM (inactive) in each case. The GI50 with SW-620 and in the assay on HCT-116 was > 100 µM (inactive) in each case.
